Data published in ChEMBL document CHEMBL1156685, “Synthesis and structure-activity relationships of N-6 substituted analogues of 9-hydroxy-4-phenylpyrrolo[3,4-c]carbazole-1,3(2H,6H)-diones as inhibitors of Wee1 and Chk1 checkpoint kinases” (Eur J Med Chem, 2008).
Converted amounts (≈) assume the structure as drawn.

Key:
[1] = molecular target: Wee1-like protein kinase (Homo sapiens, UniProt P30291)
Description: Inhibition of human Wee1 assessed as polyornithine-tyrosine copolymer phosphorylation

[2] = physchem; conditions: buffer
Description: Aqueous solubility of the compound

[3] = molecular target: Cyclin-dependent kinase 1/cyclin B1 (Homo sapiens, UniProt P06493); type: cell-based, HT-29
Description: Inhibition of Cdc2/cyclin B assessed as inhibition of histone H1 phosphorylation in human HT29 cells

[4] = molecular target: Cyclin-dependent kinase 1 (Homo sapiens, UniProt P06493); type: cell-based; conditions: ht-29
Description: Inhibition of Cdc2 Tyr15 phosphorylation in human HT29 cells by Western blot

[5] = molecular target: Proto-oncogene tyrosine-protein kinase Src (Homo sapiens, UniProt P12931)
Chain of Proto-oncogene tyrosine-protein kinase Src (P12931 2-536 limits assumed): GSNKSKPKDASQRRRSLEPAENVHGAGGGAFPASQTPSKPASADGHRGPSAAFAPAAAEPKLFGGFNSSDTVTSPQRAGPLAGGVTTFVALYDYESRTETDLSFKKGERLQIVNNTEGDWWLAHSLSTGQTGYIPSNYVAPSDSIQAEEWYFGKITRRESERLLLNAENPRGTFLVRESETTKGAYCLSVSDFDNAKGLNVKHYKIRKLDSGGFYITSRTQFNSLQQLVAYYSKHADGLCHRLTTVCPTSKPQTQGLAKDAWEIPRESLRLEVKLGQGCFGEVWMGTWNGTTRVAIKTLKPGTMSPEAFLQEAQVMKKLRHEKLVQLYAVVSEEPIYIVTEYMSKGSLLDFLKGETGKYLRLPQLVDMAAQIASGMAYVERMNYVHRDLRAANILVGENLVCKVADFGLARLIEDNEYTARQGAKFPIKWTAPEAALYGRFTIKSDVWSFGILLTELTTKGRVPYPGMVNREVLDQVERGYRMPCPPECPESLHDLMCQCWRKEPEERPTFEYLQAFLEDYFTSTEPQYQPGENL

Chain of Cyclin-dependent kinase 1/cyclin B1 (P06493 whole entry): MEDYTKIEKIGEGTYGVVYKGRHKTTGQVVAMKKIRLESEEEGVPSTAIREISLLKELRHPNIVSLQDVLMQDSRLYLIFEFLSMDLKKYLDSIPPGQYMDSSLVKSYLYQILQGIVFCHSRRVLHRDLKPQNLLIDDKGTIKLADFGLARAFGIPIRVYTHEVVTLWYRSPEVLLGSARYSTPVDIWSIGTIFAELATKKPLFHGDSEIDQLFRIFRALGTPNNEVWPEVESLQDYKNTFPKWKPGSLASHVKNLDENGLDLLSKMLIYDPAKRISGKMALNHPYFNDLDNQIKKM
Chain of Cyclin-dependent kinase 1/cyclin B1 (P14635 whole entry, further chain): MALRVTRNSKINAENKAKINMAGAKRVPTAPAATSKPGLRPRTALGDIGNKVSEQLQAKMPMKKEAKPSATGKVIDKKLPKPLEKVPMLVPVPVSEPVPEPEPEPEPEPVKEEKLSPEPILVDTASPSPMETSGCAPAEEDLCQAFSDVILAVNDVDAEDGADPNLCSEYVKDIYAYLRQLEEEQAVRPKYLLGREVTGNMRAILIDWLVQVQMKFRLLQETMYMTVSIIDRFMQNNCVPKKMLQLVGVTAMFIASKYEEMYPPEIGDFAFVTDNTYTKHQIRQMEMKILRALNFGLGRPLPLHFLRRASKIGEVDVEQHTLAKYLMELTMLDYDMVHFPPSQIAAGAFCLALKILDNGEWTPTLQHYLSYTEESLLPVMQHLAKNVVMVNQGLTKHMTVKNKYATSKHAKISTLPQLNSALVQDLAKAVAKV
Chain of Cyclin-dependent kinase 1 (P06493 whole entry): as the sequence (P06493 whole entry) above
Chain of Wee1-like protein kinase (P30291 whole entry): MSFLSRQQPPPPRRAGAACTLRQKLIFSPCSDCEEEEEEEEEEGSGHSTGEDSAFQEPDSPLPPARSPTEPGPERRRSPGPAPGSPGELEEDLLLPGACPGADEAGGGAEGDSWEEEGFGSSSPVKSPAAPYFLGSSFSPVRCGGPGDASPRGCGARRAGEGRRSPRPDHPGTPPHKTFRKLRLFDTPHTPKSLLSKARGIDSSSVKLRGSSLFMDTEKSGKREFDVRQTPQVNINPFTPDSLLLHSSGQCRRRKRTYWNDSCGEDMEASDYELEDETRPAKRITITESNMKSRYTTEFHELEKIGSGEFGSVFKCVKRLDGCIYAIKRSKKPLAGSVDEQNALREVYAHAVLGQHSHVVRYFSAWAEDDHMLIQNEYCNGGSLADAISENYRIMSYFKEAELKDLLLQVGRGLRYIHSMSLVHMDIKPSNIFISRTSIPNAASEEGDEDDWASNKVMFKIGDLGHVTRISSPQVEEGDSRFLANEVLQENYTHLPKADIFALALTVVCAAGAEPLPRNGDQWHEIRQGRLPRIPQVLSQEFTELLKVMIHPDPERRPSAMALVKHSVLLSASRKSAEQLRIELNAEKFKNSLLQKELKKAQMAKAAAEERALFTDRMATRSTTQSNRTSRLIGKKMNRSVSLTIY

Compound	IC50 [1] [nM]	solubility [2] [µg/mL]	IC50 [3] [nM]	IC50 [4] [nM]	IC50 [5] [nM]
CNCC(O)Cn1c2ccc(O)cc2c2c3c(c(-c4ccccc4Cl)cc21)C(=O)NC3=O (configuration not stated)	57				
O=C1NC(=O)c2c1c(-c1ccccc1Cl)cc1c2c2cc(O)ccc2n1CCS(=O)(=O)c1nnc[nH]1	19	16 (≈ 30.7 µM)			
CN(C)CCn1c2ccc(O)cc2c2c3c(c(-c4ccccc4Cl)cc21)C(=O)NC3=O	96	8.5 (≈ 19.6 µM)			
NC(=O)CCn1c2ccc(O)cc2c2c3c(c(-c4ccccc4Cl)cc21)C(=O)NC3=O	6		> 3400	> 10000	
O=C1NC(=O)c2c1c(-c1ccccc1)cc1c2c2cc(O)ccc2n1CCN1CCOCC1	140	14 (≈ 31.7 µM)			
O=C1NC(=O)c2c1c(-c1c(Cl)cccc1Cl)cc1c2c2cc(O)ccc2n1CCCNc1ccccc1	67				
O=C1NC(=O)c2c1c(-c1ccccc1)cc1c2c2cc(O)ccc2n1CCn1ccnc1					27000
N#CCCn1c2ccc(O)cc2c2c3c(c(-c4ccccc4Cl)cc21)C(=O)NC3=O	15	< 3	> 3400	< 250	
N#CCCCn1c2ccc(O)cc2c2c3c(c(-c4ccccc4Cl)cc21)C(=O)NC3=O	33				
O=C1NC(=O)c2c1c(-c1ccccc1Cl)cc1c2c2cc(O)ccc2n1CCCc1nnn[nH]1	16	> 60	> 3400	> 10000	
O=C(O)CCCn1c2ccc(O)cc2c2c3c(c(-c4ccccc4Cl)cc21)C(=O)NC3=O	13		> 3400	> 10000	
CNCCCn1c2ccc(O)cc2c2c3c(c(-c4ccccc4)cc21)C(=O)NC3=O	280				
COc1ccccc1-c1cc2c(c3c1C(=O)NC3=O)c1cc(O)ccc1n2CCCO		< 3			
CN(C)CCCn1c2ccc(O)cc2c2c3c(c(-c4ccccc4Cl)cc21)C(=O)NC3=O	100				
O=C1NC(=O)c2c1c(-c1ccccc1Cl)cc1c2c2cc(O)ccc2n1CCCNc1ccccc1	74				
O=C(O)CCn1c2ccc(O)cc2c2c3c(c(-c4c(Cl)cccc4Cl)cc21)C(=O)NC3=O	390	33 (≈ 70.3 µM)			
O=C(CCn1c2ccc(O)cc2c2c3c(c(-c4ccccc4Cl)cc21)C(=O)NC3=O)NS(=O)(=O)c1ccccc1	7	47 (≈ 81.9 µM)			
O=C1NC(=O)c2c1c(-c1c(Cl)cccc1Cl)cc1c2c2cc(O)ccc2n1CCN1CCOCC1	110				
O=C1NC(=O)c2c1c(-c1ccccc1Cl)cc1c2c2cc(O)ccc2n1CC(O)CO (configuration not stated)	23	12 (≈ 27.5 µM)			2500
O=C1NC(=O)c2c1c(-c1c(Cl)cccc1Cl)cc1c2c2cc(O)ccc2n1CCCN1CCOCC1	64				

Compound	IC50 [1] [nM]	solubility [2] [µg/mL]	IC50 [3] [nM]	IC50 [4] [nM]	IC50 [5] [nM]
O=C1NC(=O)c2c1c(-c1c(Cl)cccc1Cl)cc1c2c2cc(O)ccc2n1CCO		< 3			
O=C1NC(=O)c2c1c(-c1ccccc1Cl)cc1c2c2cc(O)ccc2n1CCc1nnn[nH]1	21	> 60	> 3400	2500	
O=C1NC(=O)c2c1c(-c1ccccc1)cc1c2c2cc(O)ccc2n1CCO	25				
O=C(O)CCn1c2ccc(O)cc2c2c3c(c(-c4ccccc4Cl)cc21)C(=O)NC3=O		> 60			
CN1CCN(CCCn2c3ccc(O)cc3c3c4c(c(-c5ccccc5Cl)cc32)C(=O)NC4=O)CC1	82				
O=C1NC(=O)c2c1c(-c1ccccc1Cl)cc1c2c2cc(O)ccc2n1CCN1CCOCC1	64	< 3	1700	250	
O=C1NC(=O)c2c1c(-c1ccccc1)cc1c2c2cc(O)ccc2n1CCCN1CCOCC1	290	< 3			46000
CN(C)CCNC(=O)CCn1c2ccc(O)cc2c2c3c(c(-c4c(Cl)cccc4Cl)cc21)C(=O)NC3=O	14	> 60			
COC(=O)CCn1c2ccc(O)cc2c2c3c(c(-c4ccccc4Cl)cc21)C(=O)NC3=O	30	< 3			
NC(=O)CCn1c2ccc(O)cc2c2c3c(c(-c4ccccc4)cc21)C(=O)NC3=O	21	< 3			
CS(=O)(=O)NC(=O)CCn1c2ccc(O)cc2c2c3c(c(-c4ccccc4Cl)cc21)C(=O)NC3=O	12	> 60	> 3400	250	
O=C1NC(=O)c2c1c(-c1c(Cl)cccc1Cl)cc1c2c2cc(O)ccc2n1CCCO	7	< 3			
CN(C)CC(O)Cn1c2ccc(O)cc2c2c3c(c(-c4ccccc4Cl)cc21)C(=O)NC3=O (configuration not stated)	58	> 60	> 3400	250	
CN(C)CCNC(=O)CCn1c2ccc(O)cc2c2c3c(c(-c4ccccc4Cl)cc21)C(=O)NC3=O	35	> 60	1300	< 250	
CN(C)CCn1c2ccc(O)cc2c2c3c(c(-c4c(Cl)cccc4Cl)cc21)C(=O)NC3=O	170	7.4 (≈ 15.8 µM)			
CN(C)CCCn1c2ccc(O)cc2c2c3c(c(-c4c(Cl)cccc4Cl)cc21)C(=O)NC3=O	140				
CN(C)CCn1c2ccc(O)cc2c2c3c(c(-c4ccccc4)cc21)C(=O)NC3=O	200	18 (≈ 45.1 µM)			31000
O=C1NC(=O)c2c1c(-c1ccccc1Cl)cc1c2c2cc(O)ccc2n1CC[S+]([O-])c1nnc[nH]1 (configuration not stated)	9	18 (≈ 35.6 µM)			
O=C1NC(=O)c2c1c(-c1c(Cl)cccc1Cl)cc1c2c2cc(O)ccc2n1CCn1ccnc1	120	< 3			
O=C1NC(=O)c2c1c(-c1ccccc1)cc1c2c2cc(O)ccc2n1CCCn1ccnc1	110	< 3			

Compound	IC50 [1] [nM]	solubility [2] [µg/mL]	IC50 [3] [nM]	IC50 [4] [nM]	IC50 [5] [nM]
CN1CCN(CCCn2c3ccc(O)cc3c3c4c(c(-c5ccccc5)cc32)C(=O)NC4=O)CC1	300	28 (≈ 59.8 µM)			17000
CNCCCn1c2ccc(O)cc2c2c3c(c(-c4c(Cl)cccc4Cl)cc21)C(=O)NC3=O	110	7.3 (≈ 15.6 µM)			
O=C1NC(=O)c2c1c(-c1c(Cl)cccc1Cl)cc1c2c2cc(O)ccc2n1CCCn1ccnc1	59	3.2 (≈ 6.33 µM)			
O=C1NC(=O)c2c1c(-c1ccccc1Cl)cc1c2c2cc(O)ccc2n1CCCO		< 3	650		
O=C1NC(=O)c2c1c(-c1ccccc1)cc1c2c2cc(O)ccc2n1CCCNc1ccccc1	93				
CN(C)CCNC(=O)CCn1c2ccc(O)cc2c2c3c(c(-c4ccccc4)cc21)C(=O)NC3=O		> 60			
CNCCCn1c2ccc(O)cc2c2c3c(c(-c4ccccc4Cl)cc21)C(=O)NC3=O	69	5.2 (≈ 12 µM)	710	< 250	
CN1CCN(CCCn2c3ccc(O)cc3c3c4c(c(-c5c(Cl)cccc5Cl)cc32)C(=O)NC4=O)CC1	62				
O=C1NC(=O)c2c1c(-c1ccccc1Cl)cc1c2c2cc(O)ccc2n1CCCn1ccnc1	54				
O=C1NC(=O)c2c1c(-c1ccccc1Cl)cc1c2c2cc(O)ccc2n1CCSc1nnc[nH]1	24	3 (≈ 6.12 µM)			
O=C1NC(=O)c2c1c(-c1ccccc1Cl)cc1[nH]c3ccc(O)cc3c21					> 50000
COCCCn1c2ccc(O)cc2c2c3c(c(-c4ccccc4Cl)cc21)C(=O)NC3=O	27	< 3			
O=C1NC(=O)c2c1c(-c1ccccc1Cl)cc1c2c2cc(O)ccc2n1CCO	45	< 3			
O=C(O)CCn1c2ccc(O)cc2c2c3c(c(-c4ccccc4)cc21)C(=O)NC3=O		> 60			13000
O=C1NC(=O)c2c1c(-c1ccccc1)cc1c2c2cc(O)ccc2n1CCCO	200	< 3			
O=C1NC(=O)c2c1c(-c1ccccc1Cl)cc1c2c2cc(O)ccc2n1CCn1ccnc1	92				
CN(C)CCCn1c2ccc(O)cc2c2c3c(c(-c4ccccc4)cc21)C(=O)NC3=O	360				5600
NC(=O)CCn1c2ccc(O)cc2c2c3c(c(-c4c(Cl)cccc4Cl)cc21)C(=O)NC3=O	330	< 3			
